Emission wavelength and maximum excitation wavelength data for 1 compound are collected here from patent publication US11591476B2, “In-vivo probe for real time longitudinal monitoring of inducible nitric-oxide synthase in living cells and animals” (priority 2016, dated 2023).

Each structure is given as a SMILES string.

The nature of this data set: Fluorescence excitation and emission maxima of the probes. Type of data set: physicochemical. From the text: The probe of the present disclosure can selectively bind iNOS enzyme and produce a perceptible change in fluorescence upon binding.

Compound `CN1c2cc3c(cc2C(CS(=O)(=O)[O-])=CC1(C)C)C(c1c(Cl)c(SCC(=O)NCCCCCC(=O)N2CCN(c4ccnc(-n5ccnc5)n4)C(CC(=O)NCc4ccc5c(c4)OCO5)C2)c(Cl)c(Cl)c1C(=O)O)=c1cc2c(cc1O3)=[N+](C)C(C)(C)C=C2CS(=O)(=O)O` (centres unmarked) [PIA-610, Pyrimidine Imidazole Alexa-Fluor-610] came in with an emission wavelength of 630 nm and a maximum excitation wavelength of 610 nm.
